Results taken from US12398120B2, “Substituted hydantoinamides as ADAMTS7 antagonists” (BAYER AKTIENGESELLSCHAFT, priority 2019, dated 2025).

target: ADAMTS4 (Homo sapiens (Human), UniProt O75173); test: Selectivity assay for ADAMTS-7 modulators: ADAMTS4 (FRET substrate); type: biochemical; conditions: ADAMTS4 (R&D 4307-AD) 50 nM, substrate Dabcyl-EEVKAKVQPY-Glu(Edans)-NH2 1 μM, 120 min, 32° C.
Outline: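 Activity read as rising fluorescence after a FRET substrate is cleaved by human ADAMTS4, with reactions started by substrate addition to wells holding compound or DMSO. Percent inhibition plotted against concentration gave IC50.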

ADAMTS4, sequence (O75173 213-685): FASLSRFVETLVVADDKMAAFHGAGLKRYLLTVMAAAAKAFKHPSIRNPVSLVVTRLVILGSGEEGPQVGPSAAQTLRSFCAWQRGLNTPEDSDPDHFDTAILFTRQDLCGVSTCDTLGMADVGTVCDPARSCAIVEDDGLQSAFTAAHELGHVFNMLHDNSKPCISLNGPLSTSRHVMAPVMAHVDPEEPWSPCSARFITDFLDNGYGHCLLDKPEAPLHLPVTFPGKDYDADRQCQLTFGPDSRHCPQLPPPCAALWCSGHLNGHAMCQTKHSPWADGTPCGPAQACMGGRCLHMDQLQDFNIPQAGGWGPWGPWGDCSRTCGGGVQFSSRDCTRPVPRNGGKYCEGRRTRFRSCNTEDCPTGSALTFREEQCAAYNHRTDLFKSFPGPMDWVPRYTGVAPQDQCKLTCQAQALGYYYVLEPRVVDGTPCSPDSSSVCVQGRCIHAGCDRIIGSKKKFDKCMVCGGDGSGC

| Structure (SMILES) | IC50 |
| --- | --- |
| Cn1ccnc1C1(CNC(=O)c2cc(F)ccc2-c2ccc(C(F)(F)F)cc2)NC(=O)NC1=O (single isomer, unassigned; ent-4) [Example 149, Ent-4-Fluoro-N-{[4-(1-Methyl-1H-Imidazol-2-Yl)-2,5-Dioxoimidazolidin-4-Yl]Methyl}-4′-(Trifluoromethyl)[Biphenyl]-2-Carboxamide] | 1.15 µM |
| Cc1ccc(C(=O)NCC2(c3nccn3C)NC(=O)NC2=O)c(-c2ccc(C3CC3(F)F)cc2)c1 (centres unmarked) [Example 135, 4′-(2,2-Difluorocyclopropyl)-5-Methyl-N-{[4-(1-Methyl-1H-Imidazol-2-Yl)-2,5-Dioxoimidazolidin-4-Yl]Methyl}[1,1′-Biphenyl]-2-Carboxamide] | 1.3 µM |
| O=C1NC(=O)C(CNC(=O)c2ccccc2-c2ccc(C(F)(F)F)nc2)(c2ccnn2C2CC2)N1 (stereo not drawn) [Example 66, Ent-N-{[4-(1-Cyclopropyl-1H-Pyrazol-5-Yl)-2,5-Dioxoimidazolidin-4-Yl]Methyl}-2-[6-(Trifluoromethyl)Pyridin-3-Yl]Benzamide] | 8.2 µM |
| Cn1nccc1C1(CNC(=O)c2cc(F)ccc2-c2ccc(C(F)(F)F)cc2)NC(=O)NC1=O (racemic) [Example 177, Rac-4-Fluoro-N-{[4-(1-Methyl-1H-Pyrazol-5-Yl)-2,5-Dioxoimidazolidin-4-Yl]Methyl}-4′-(Trifluoromethyl)[Biphenyl]-2-Carboxamide] | 12 µM |
| O=C1NC(=O)C(CNC(=O)c2ccccc2-c2ccc(C(F)(F)F)cc2)(c2cscn2)N1 (racemic) [Example 196, Rac-N-{[2,5-Dioxo-4-(1,3-Thiazol-4-Yl)Imidazolidin-4-Yl]Methyl}-4′-(Trifluoromethyl)[Biphenyl]-2-Carboxamide] | 30 µM |
| Cc1ccc(-c2cc(Cl)ccc2C(=O)NCC2(c3nccn3C)NC(=O)NC2=O)cc1 (single isomer, unassigned; ent-5) [Example 153, Ent-5-Chloro-4′-Methyl-N-{[4-(1-Methyl-1H-Imidazol-2-Yl)-2,5-Dioxoimidazolidin-4-Yl]Methyl}[Biphenyl]-2-Carboxamide] | 0.51 µM |
| O=C1NC(=O)C(CNC(=O)c2ccc(F)cc2-c2ccc(C(F)(F)F)cc2)(c2ncsc2C2CC2)N1 (racemic) [Example 272, Rac-N-{[4-(5-Cyclopropyl-1,3-Thiazol-4-Yl)-2,5-Dioxoimidazolidin-4-Yl]Methyl}-5-Fluoro-4′-(Trifluoromethyl)[Biphenyl]-2-Carboxamide] | 7.8 µM |
| O=C1NC(=O)C(CNC(=O)c2ccccc2-c2ccc(Cl)cc2)(C2CC(F)(F)C2)N1 (single isomer, unassigned; ent-4) [Example 247, Ent-4′-Chloro-N-{[4-(3,3-Difluorocyclobutyl)-2,5-Dioxoimidazolidin-4-Yl]Methyl}[Biphenyl]-2-Carboxamide] | > 50 µM |
| Cc1ccc(C(=O)NCC2(c3ccnn3C)NC(=O)NC2=O)c(-c2ccc(C(F)(F)F)cc2)c1 (single isomer, unassigned; ent-5) [Example 308, Ent-5-Methyl-N-{[4-(1-Methyl-1H-Pyrazol-5-Yl)-2,5-Dioxoimidazolidin-4-Yl]Methyl}-4′-(Trifluoromethyl)[Biphenyl]-2-Carboxamide] | 4.2 µM |
| O=C1NC(=O)C(CNC(=O)c2ccccc2-c2ccc(Cl)cc2)(c2ccnn2C(F)F)N1 (single isomer, unassigned; ent-4) [Example 259, Ent-4′-Chloro-N-({4-[1-(Difluoromethyl)-1H-Pyrazol-5-Yl]-2,5-Dioxoimidazolidin-4-Yl}Methyl)[Biphenyl]-2-Carboxamide] | 5.8 µM |
| Cc1scnc1C1(CNC(=O)c2ccc(F)cc2-c2ccc(Cl)cc2)NC(=O)NC1=O (racemic) [Example 169, Rac-4′-Chloro-5-Fluoro-N-{[4-(5-Methyl-1,3-Thiazol-4-Yl)-2,5-Dioxoimidazolidin-4-Yl]Methyl}[Biphenyl]-2-Carboxamide] | 8.5 µM |
| O=C1NC(=O)[C@](CNC(=O)c2ccccc2-c2ccc(C(F)(F)F)c(Cl)c2)(C2CC2)N1 [Example 226, 3′-Chloro-N-{[(4R)-4-Cyclopropyl-2,5-Dioxoimidazolidin-4-Yl]Methyl}-4′-(Trifluoromethyl)[1,1′-Biphenyl]-2-Carboxamide] | > 50 µM |
| Cn1nccc1C1(CNC(=O)c2cc(F)ccc2-c2ccc(Cl)cc2)NC(=O)NC1=O (single isomer, unassigned; ent-4) [Example 187, Ent-4′-Chloro-4-Fluoro-N-{[4-(1-Methyl-1H-Pyrazol-5-Yl)-2,5-Dioxoimidazolidin-4-Yl]Methyl}[Biphenyl]-2-Carboxamide] | 3.55 µM |
| Cn1nccc1C1(CNC(=O)c2ccccc2-c2ccc(Cl)cc2F)NC(=O)NC1=O (single isomer, unassigned; ent-4) [Example 313, Ent-4′-Chloro-2′-Fluoro-N-{[4-(1-Methyl-1H-Pyrazol-5-Yl)-2,5-Dioxoimidazolidin-4-Yl]Methyl}[Biphenyl]-2-Carboxamide] | 23 µM |
| O=C1NC(=O)[C@](CNC(=O)c2ccccc2-c2ccc(CC(F)(F)F)cc2)(C2CC2)N1 [Example 119, N-{[(4R)-4-Cyclopropyl-2,5-Dioxoimidazolidin-4-Yl]Methyl}-4′-(2,2,2-Trifluoroethyl)[Biphenyl]-2-Carboxamide] | 9.1 µM |
| Cc1ncsc1C1(CNC(=O)c2ccc(F)cc2-c2ccc(C(F)(F)F)cc2)NC(=O)NC1=O (single isomer, unassigned; ent-5) [Example 10, Ent-5-Fluoro-N-{[4-(4-Methyl-1,3-Thiazol-5-Yl)-2,5-Dioxoimidazolidin-4-Yl]Methyl}-4′-(Trifluoromethyl)[Biphenyl]-2-Carboxamide] | 8.9 µM |
| O=C1NC(=O)[C@](CNC(=O)c2ccc(Cl)c(F)c2-c2ccc(C(F)(F)F)cc2)(C2CC2)N1 [Example 93, 5-Chloro-N-{[(4R)-4-Cyclopropyl-2,5-Dioxoimidazolidin-4-Yl]Methyl}-6-Fluoro-4′-(Trifluoromethyl)[1,1′-Biphenyl]-2-Carboxamide] | 3.4 µM |
| Cc1c(C2(CNC(=O)c3ccccc3-c3ccc(C(F)(F)F)cc3)NC(=O)NC2=O)cnn1C (racemic) [Example 14, Rac-N-{[4-(1,5-Dimethyl-1H-Pyrazol-4-Yl)-2,5-Dioxoimidazolidin-4-Yl]Methyl}-4′-(Trifluoromethyl)[Biphenyl]-2-Carboxamide] | 17 µM |
| O=C1NC(=O)C(CNC(=O)c2ccccc2-c2ccc(C(F)(F)F)cc2)(C2(F)CC2)N1 (stereo not drawn) [Example 255, Ent-N-{[4-(1-Fluorocyclopropyl)-2,5-Dioxoimidazolidin-4-Yl]Methyl}-4′-(Trifluoromethyl)[Biphenyl]-2-Carboxamide] | 10 µM |
| Cn1cncc1C1(CNC(=O)c2ccc(F)cc2-c2ccc(C(F)(F)F)cc2)NC(=O)NC1=O (racemic) [Example 284, Rac-5-Fluoro-N-{[4-(1-Methyl-1H-Imidazol-5-Yl)-2,5-Dioxoimidazolidin-4-Yl]Methyl}-4′-(Trifluoromethyl)[Biphenyl]-2-Carboxamide] | 8.5 µM |
| Cc1scnc1C1(CNC(=O)c2ccccc2-c2ccc(C(F)(F)F)cc2)NC(=O)NC1=O (single isomer, unassigned) [Example 2, Ent-N-{[4-(5-Methyl-1,3-Thiazol-4-Yl)-2,5-Dioxoimidazolidin-4-Yl]Methyl}-4′-(Trifluoromethyl)[Biphenyl]-2-Carboxamide] | > 50 µM |
| Cn1nccc1C1(CNC(=O)c2cc(F)ccc2-c2ccc(C(F)(F)F)nc2)NC(=O)NC1=O (single isomer, unassigned; ent-5) [Example 292, Ent-5-Fluoro-N-{[4-(1-Methyl-1H-Pyrazol-5-Yl)-2,5-Dioxoimidazolidin-4-Yl]Methyl}-2-[6-(Trifluoromethyl)Pyridin-3-Yl]Benzamide] | 9.5 µM |
| Cn1ccnc1C1(CNC(=O)c2ccc(F)cc2-c2ccc(C3CC3(F)F)cc2)NC(=O)NC1=O (centres unmarked) [Example 141, 4′-(2,2-Difluorocyclopropyl)-5-Fluoro-N-{[4-(1-Methyl-1H-Imidazol-2-Yl)-2,5-Dioxoimidazolidin-4-Yl]Methyl}[1,1′-Biphenyl]-2-Carboxamide] | 3.6 µM |
| CC(C)c1ccc(-c2ccccc2C(=O)NC[C@@]2(C3CC3)NC(=O)NC2=O)cc1 [Example 118, N-{[(4R)-4-Cyclopropyl-2,5-Dioxoimidazolidin-4-Yl]Methyl}-4′-Isopropyl[Biphenyl]-2-Carboxamide] | 7.6 µM |
| Cc1cnn(C)c1C1(CNC(=O)c2ccccc2-c2ccc(C(F)(F)F)cc2)NC(=O)NC1=O (racemic) [Example 61, Rac-N-{[4-(1,4-Dimethyl-1H-Pyrazol-5-Yl)-2,5-Dioxoimidazolidin-4-Yl]Methyl}-4′-(Trifluoromethyl)[Biphenyl]-2-Carboxamide] | 7.4 µM |
| Cc1ccc(C(=O)NCC2(c3scnc3C)NC(=O)NC2=O)c(-c2ccc(C(F)(F)F)cc2)c1 (single isomer, unassigned; ent-5) [Example 8, Ent-5-Methyl-N-{[4-(4-Methyl-1,3-Thiazol-5-Yl)-2,5-Dioxoimidazolidin-4-Yl]Methyl}-4′-(Trifluoromethyl)[Biphenyl]-2-Carboxamide] | 3.8 µM |
| O=C1NC(=O)C(CNC(=O)c2ccc(F)cc2-c2ccc(C(F)(F)F)cc2)(c2ccnn2C(F)F)N1 (stereo not drawn) [Example 296, Ent-N-({4-[1-(Difluoromethyl)-1H-Pyrazol-5-Yl]-2,5-Dioxoimidazolidin-4-Yl}Methyl)-5-Fluoro-4′-(Trifluoromethyl)[Biphenyl]-2-Carboxamide] | 9.5 µM |
| Cn1ccnc1C1(CNC(=O)c2ccc(Cl)cc2-c2ccc(C(F)(F)F)cc2)NC(=O)NC1=O (single isomer, unassigned; ent-5) [Example 161, Ent-5-Chloro-N-{[4-(1-Methyl-1H-Imidazol-2-Yl)-2,5-Dioxoimidazolidin-4-Yl]Methyl}-4′-(Trifluoromethyl)[Biphenyl]-2-Carboxamide] | 0.728 µM |
| O=C1NC(=O)[C@](CNC(=O)c2ccccc2-c2ccc(Cl)cc2F)(C2CC2)N1 [Example 54, 4′-Chloro-N-{[(4R)-4-Cyclopropyl-2,5-Dioxoimidazolidin-4-Yl]Methyl}-2′-Fluoro[Biphenyl]-2-Carboxamide] | 32 µM |
